Common to all, as to format: biochemical
For one assay, the target named is T1, CD45 (Homo sapiens, UniProt P08575).
T1 sequence (P08575 26-1306): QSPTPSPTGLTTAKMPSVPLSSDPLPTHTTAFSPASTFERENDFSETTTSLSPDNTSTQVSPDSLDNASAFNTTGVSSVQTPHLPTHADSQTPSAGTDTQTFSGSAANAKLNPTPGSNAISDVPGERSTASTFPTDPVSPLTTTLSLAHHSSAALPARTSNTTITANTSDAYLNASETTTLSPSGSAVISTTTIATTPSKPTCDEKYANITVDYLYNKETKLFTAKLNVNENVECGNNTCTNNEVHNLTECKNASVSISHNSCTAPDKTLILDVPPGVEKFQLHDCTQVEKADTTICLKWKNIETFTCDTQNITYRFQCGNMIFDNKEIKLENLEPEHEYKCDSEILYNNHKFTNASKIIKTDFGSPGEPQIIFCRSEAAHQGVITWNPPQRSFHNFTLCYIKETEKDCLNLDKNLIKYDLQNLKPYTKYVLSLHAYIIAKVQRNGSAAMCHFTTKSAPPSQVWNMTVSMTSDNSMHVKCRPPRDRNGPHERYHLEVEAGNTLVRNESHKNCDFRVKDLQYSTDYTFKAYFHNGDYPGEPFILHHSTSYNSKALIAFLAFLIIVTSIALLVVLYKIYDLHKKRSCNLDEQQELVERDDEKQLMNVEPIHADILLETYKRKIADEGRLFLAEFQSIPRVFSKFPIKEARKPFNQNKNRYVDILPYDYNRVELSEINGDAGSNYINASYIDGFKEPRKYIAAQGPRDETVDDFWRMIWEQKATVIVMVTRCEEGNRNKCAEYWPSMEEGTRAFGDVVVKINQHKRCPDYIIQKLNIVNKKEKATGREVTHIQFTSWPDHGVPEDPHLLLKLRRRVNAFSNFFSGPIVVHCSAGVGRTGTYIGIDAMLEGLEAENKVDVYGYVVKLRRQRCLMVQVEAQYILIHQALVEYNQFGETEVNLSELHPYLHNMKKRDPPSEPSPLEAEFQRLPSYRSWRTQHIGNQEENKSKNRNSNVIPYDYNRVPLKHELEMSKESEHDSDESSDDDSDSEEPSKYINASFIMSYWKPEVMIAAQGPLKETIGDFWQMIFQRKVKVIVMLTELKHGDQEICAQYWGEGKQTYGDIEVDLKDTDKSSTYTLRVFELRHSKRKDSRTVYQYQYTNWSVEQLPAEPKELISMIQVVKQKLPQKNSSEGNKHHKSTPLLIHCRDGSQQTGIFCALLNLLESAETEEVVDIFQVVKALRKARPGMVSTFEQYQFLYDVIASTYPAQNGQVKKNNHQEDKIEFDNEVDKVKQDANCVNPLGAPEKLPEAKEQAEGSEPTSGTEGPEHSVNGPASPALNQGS
The experiment in a line: FRET phosphatase assay, CD45. The procedure:
(§1) For the enzyme activity assay, 2.5 μl of compound, 12.5 μl of enzyme, and 10 μl of substrate (separated by air gaps) are added to columns 3 through 24 by the Biomek FX in a single dispense. After the dispense, the tips are washed with DMSO and water for re-use between each quadrant. Once the assay plates are set up, they are incubated at 27° C. for 45 minutes. Then 20 μl of detection buffer is added to stop the reaction and to allow the Europium antibody (Eu-Ab) and streptavidin-APC to bind to the substrate.
(§2) The plates are then placed in the plate reader, an Analyst HT. Excitation light at 360 nm is used to excite the Europium antibody with an emission at 620 nm. Fluorescence resonance energy transfer (FRET) from Eu-Ab to APC will only occur when they are in close proximity. Therefore, when an APC emission is observed at 665 nm the enzyme has been inhibited from removing the phosphate group from the substrate. The FRET assay is time-resolved (TR), where there is a delay between excitation light and collection of emission signals. This reduces the amount of stray light created by short-lived fluorescing molecules. The Analyst HT measures APC and Europium emission signals and calculates the ratio between the two intensities. Typical intensities for the Europium is ˜2000 and APC is ˜600.
(§3) The following compounds were tested by FRET against the listed phosphatases, and the IC50 were obtained. […]

The next assay has as its target T2, PTPIB (Homo sapiens, UniProt P18031).
T2 sequence (P18031 1-435): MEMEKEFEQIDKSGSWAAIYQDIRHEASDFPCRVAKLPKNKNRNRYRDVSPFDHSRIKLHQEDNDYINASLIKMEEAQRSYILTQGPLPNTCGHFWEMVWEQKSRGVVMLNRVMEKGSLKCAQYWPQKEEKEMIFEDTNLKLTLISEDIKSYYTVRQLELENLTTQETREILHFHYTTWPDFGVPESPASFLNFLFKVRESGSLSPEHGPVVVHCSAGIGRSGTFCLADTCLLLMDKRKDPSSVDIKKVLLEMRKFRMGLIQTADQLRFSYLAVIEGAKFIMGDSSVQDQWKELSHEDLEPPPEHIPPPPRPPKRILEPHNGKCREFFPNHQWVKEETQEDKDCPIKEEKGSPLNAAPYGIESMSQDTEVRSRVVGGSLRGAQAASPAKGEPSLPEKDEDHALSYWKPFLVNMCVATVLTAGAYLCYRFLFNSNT
As to the kind of experiment: FRET phosphatase assay, PTPIB. Here is the method: as §1, §2, §3

In the next assay the target is PTPB (Homo sapiens, UniProt P23467). The experiment in a line: FRET phosphatase assay, PTPB. Here is the method:
as §1, §2, §3

The target in another assay is T3, T Cell (Homo sapiens, UniProt P17706).
T3 sequence (P17706 1-415): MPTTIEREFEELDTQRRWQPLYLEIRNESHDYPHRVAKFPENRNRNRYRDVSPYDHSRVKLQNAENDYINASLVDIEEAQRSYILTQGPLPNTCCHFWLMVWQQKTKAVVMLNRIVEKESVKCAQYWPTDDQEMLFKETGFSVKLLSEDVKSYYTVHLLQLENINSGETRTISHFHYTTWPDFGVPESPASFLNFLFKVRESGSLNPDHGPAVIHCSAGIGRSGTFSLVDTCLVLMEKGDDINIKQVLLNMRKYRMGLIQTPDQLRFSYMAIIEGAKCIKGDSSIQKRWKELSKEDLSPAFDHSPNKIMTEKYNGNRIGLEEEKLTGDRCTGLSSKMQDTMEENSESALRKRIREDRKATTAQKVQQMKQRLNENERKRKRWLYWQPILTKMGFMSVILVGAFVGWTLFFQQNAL
The experiment in a line: FRET phosphatase assay, T Cell. The procedure: as §1, §2, §3

pIC50: −log10 of the molar value.

Chain of PTPB (P23467 1643-1997 limits assumed): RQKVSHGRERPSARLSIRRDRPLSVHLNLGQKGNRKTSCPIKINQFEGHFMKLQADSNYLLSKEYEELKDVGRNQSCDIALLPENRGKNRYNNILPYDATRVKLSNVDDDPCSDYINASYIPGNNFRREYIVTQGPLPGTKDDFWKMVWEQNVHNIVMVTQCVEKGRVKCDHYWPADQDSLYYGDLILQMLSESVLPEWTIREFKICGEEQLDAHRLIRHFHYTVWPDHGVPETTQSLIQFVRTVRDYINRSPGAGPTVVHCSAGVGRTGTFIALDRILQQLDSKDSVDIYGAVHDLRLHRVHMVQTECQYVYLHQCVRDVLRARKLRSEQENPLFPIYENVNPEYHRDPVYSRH

Broadly, the pIC50 is the negative decadic logarithm of the IC50, by convention in mol/L. A lower pIC50 goes with a large IC50. `CCOC(=O)C(=CC1=C/C(=C/N(C)C)C(=O)O1)C(=O)OCC` [AGY- 0046293]: the negative logarithm of the IC50 (pIC50) was 4.05 at CD45, 4.39 against PTPIB, 4.63 against PTPB and 2.17 against T Cell.

Source of the values: US20050266509A1, “Interaction of NMDA receptor with protein tyrosine phosphatase” (AGY Therapeutics, Inc., priority 2003, published 2005).
